Earlier results as cited in patent US20080085892A1, “Liquid dosage form of acetaminophen” (priority 2006, published 2008).

solubility in water: about 5 % wt. | solubility in water (in words): slightly soluble
Compound: COc1ccccc1OCC(O)CO (centres unmarked) [Guaifenesin, 3-(2-methoxyphenoxy)-1,2-propanediol]
